Experimental findings from patent US20260240850A1, “Compositions and Methods for Treating MALT1 Associated Diseases” (Rarefied Biosciences, Inc., priority 2023, published 2026) are described below.

Experiment [1] relates to T cells that lack endogenous CARD11 and bear transfected CARD11 gain-of-function mutations; κB-GFP readout of NFκB signaling. Kind of experiment: NF-κB-GFP reporter in T cells transfected with CARD11 gain-of-function cDNA (Example 1). Type of experiment: cell-based. The note with it: T cells with CARD11 GOF variants; baseline and after anti-CD3 or PMA/ionomycin; flow cytometry. Here is the method:
MALT1 inhibitors (e.g., Compounds 1.1, 1.26, 1.27, 1.30, 1.33, 2.1, and/or 2.4) are incubated with T cells that lack endogenous CARD11 and bear transiently transfected CARD11 cDNA bearing gain-of-function mutations. An optional variation is co-transfecting 50:50 a copy of the wildtype CARD11 gene with the CARD11 gain of function mutant. The T-cells include a reporter gene (κB-GFP) that acts as a readout of NFκB signaling. The expression of NF-κB-GFP at baseline and after anti-CD3, or PMA/ionomycin stimulation is measured.
T-Cells bearing GOF variants of CARD11 have elevated baseline activation of NF-κB-GFP, and higher still after stimulation, which is assessed by flow cytometry.
(In general: Flow cytometry measures light scatter and fluorescence of single cells or particles in a stream.)

In the next experiment the test system is patients with BENTA. The experiment can be described thus: Clinical trial of MALT1 inhibitors for BENTA (Example 2). The note with it: oral once daily, 25 mg/day up to 1000 mg/day. Type of experiment: in vivo. Here is the method:
MALT1 inhibitors (e.g., Compounds 1.1, 1.26, 1.27, 1.30, 1.33, 2.1, and/or 2.4) are used to treat patients with BENTA. MALT1 inhibitors (e.g., Compounds 1.1, 1.26, 1.27, 1.30, 1.33, 2.1, and/or 2.4) are formulated in an oral dosage form and administered to patients once daily at a starting dose of 25 mg/day. Alternatively, the daily dose is escalated from 25 mg/day to 1000 mg/day.

For experiment [2], the system named is mTor pathway (e.g., mTORc1 and/or mTORc2) in primary T cells. The experiment can be described thus: mTor pathway activation in stimulated primary T cells, pAkt/pS6 staining (Example 3). Type of experiment: cell-based. Particulars: primary T cells after anti-CD3/anti-CD28 activation. On the procedure:
Primary T cells are stimulated to activation and cultured in the presence of IL-2. For stimulation, cells are preincubated with anti-CD3F and anti-CD28 on ice and washed. Cells were stimulated by crosslinking the anti-CD3 antibody with a secondary antibody (e.g., anti-mouse IgG for 10 min) in complete T cell media and then fixed with pre-warmed fixation buffer. Cells are then washed with FACS buffer and permeabilized with permeabilization buffer pre-chilled to −20° C. and incubated for 30 min on ice. Cells are washed and then stained with the following antibodies or appropriate isotype controls anti-pAkt (Ser473) and anti-pS6 (Ser240/244).
MALT1 inhibitors (e.g., Compounds 1.1, 1.26, 1.27, 1.30, 1.33, 2.1, and/or 2.4) are incubated with the primary T cells after activation.

In experiment [3] the test system is epithelial cells (e.g., HEK293 cells) bearing CARD14 gain-of-function mutations; κB-GFP readout of NFκB signaling. Kind of experiment: NF-κB-GFP reporter in epithelial cells transfected with CARD14 gain-of-function cDNA (Example 4). The class given is cell-based. The note with it: epithelial cells with CARD14 GOF variants; flow cytometry. On the procedure:
MALT1 inhibitors (e.g., Compounds 1.1, 1.26, 1.27, 1.30, 1.33, 2.1, and/or 2.4) are incubated with epithelial cells (e.g., HEK293 cells) that lack endogenous CARD14 and bear transiently transfected CARD14 cDNA bearing gain-of-function mutations. The epithelial cells include a reporter gene (κB-GFP) that acts as a readout of NFκB signaling. The expression of NF-κB-GFP at baseline and after anti-CD3, or PMA/ionomycin stimulation is measured.
Epithelial cells bearing gain of function variants of CARD14 have elevated baseline activation of NF-κB-GFP, and higher still after stimulation, which is assessed by flow cytometry.

A further experiment addresses T1, full-length human MALT1 (Homo sapiens, UniProt Q9UDY8).
T1 construct: Recombinant full-length human MALT1 protein was expressed and purified; made in house
T1 sequence (Q9UDY8 1-824): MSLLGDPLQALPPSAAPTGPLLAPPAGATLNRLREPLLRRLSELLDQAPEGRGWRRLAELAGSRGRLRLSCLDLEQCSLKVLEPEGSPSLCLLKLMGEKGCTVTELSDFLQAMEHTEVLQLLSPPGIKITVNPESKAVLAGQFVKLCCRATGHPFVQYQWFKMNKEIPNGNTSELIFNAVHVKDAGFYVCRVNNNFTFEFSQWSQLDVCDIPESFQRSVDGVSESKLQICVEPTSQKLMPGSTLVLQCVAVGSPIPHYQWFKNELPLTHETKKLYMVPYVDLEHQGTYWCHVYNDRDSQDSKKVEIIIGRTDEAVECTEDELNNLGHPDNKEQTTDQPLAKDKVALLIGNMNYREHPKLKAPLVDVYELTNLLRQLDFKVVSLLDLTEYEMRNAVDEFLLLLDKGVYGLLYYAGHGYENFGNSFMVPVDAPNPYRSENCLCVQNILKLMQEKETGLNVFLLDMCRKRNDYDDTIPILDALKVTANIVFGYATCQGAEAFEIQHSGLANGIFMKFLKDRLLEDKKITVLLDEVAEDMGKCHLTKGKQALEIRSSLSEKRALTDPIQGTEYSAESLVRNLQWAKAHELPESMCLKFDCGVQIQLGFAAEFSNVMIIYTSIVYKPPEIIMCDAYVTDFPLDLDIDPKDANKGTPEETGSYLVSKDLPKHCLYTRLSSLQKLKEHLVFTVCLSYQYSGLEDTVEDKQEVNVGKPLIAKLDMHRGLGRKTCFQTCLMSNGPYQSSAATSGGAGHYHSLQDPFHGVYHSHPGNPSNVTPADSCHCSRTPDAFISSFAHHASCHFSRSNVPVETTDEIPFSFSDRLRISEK
The experiment can be described thus: MALT1 cleavage of HOIL1 (Example 5). The class given is biochemical. Particulars: HOIL1 0.05 μg/μL with MALT1, 2 h at 37° C.; gel electrophoresis/immunoblot. Here is the method:
Recombinant full-length human MALT1 protein was expressed and purified. C-terminal Myc-FLAG-tagged full-length human HOIL1 was obtained from Origene. HOIL1 protein (0.05 μg/μL) is incubated with different concentrations of MALT1 in assay buffer (200 mM Tris-HCl, 0.8 M Na citrate, 0.1 mM EGTA, 0.05% CHAPS, 1 mM DTT, pH 7.4) for 2 h at 37° C. Cleavage of HOIL1 was analyzed by gel electrophoresis using a 4-12% Bis-Tris SDS-polyacrylamide (PAGE) gradient gel (Life Technologies). The presence of a small fragment was confirmed by immunoblotting with an N-terminal antibody (anti-N-terminal HOIL1; HPA024185; Sigma). Total HOIL1 was observed using a C-terminal directed antibody (anti-FLAG, clone M2, Sigma). These assays are performed with both the cleavable HOIL1 and, as a negative control, a non-cleavable HOIL1 (where Lys is substituted for Arg165).
On the technique in general: A western blot detects proteins with antibodies after separation by electrophoresis.

As for `CO[C@@H](C)c1c(Nc2ccc([C@@H](N(C)C(=O)C3CCS(=O)(=O)CC3)C(F)(F)F)cc2)cnc2nc(Cl)nn12` [Compound 1.26, N-[(1R)-1-[4-({2-chloro-7-[(1S)-1-methoxyethyl]-[L2,4]triazolo[1,5-a]pyrimidin-6-yl}amino)phenyl]-2,2,2-trifluoroethyl]-N-methyl-1,1-dioxo-1λ^6-thiane-4-carboxamide], the NF-κB-GFP expression result in experiment [1] and in experiment [3] was “lowered NF-κB-GFP expression” in each case. The BENTA symptoms result in the experiment with patients with BENTA is given as “amelioration of their BENTA symptoms”. For the same molecule, in the experiment on patients with BENTA, the “Jun/Fos, NF-κB and/or mTor pathway activation in patients” value (“Jun/Fos … in patients” below) is recorded as “reduced Jun/Fos, and/or NF-κB and/or a mTor pathway (e.g., mTORc1 and/or mTORc2) activation”. In experiment [2], the “mTor pathway (mTORc1 and/or mTORc2) activation” value is recorded as “suppress mTor pathway (e.g., mTORc1 and/or mTORc2) activation”. For the same molecule, the “cleavage of HOIL1” value at full-length human MALT1 was “cleavage of HOIL1 is reduced”.
As for `CO[C@H](C)c1c(Nc2ccc([C@@H](N(C)C(=O)C3CCS(=O)(=O)CC3)C(F)(F)F)cc2)cnc2nc(Cl)nn12` [Compound 1.27, N—[(IR)—I-[4-({2-chloro-7-[(1R)-1-methoxyethyl]-[1,2,4]triazolo[1,5-a]pyrimidin-6-yl}amino)phenyl]-2,2,2-trifluoroethyl]-N-methyl-1,1-dioxo-1λ^6-thiane-4-carboxamide], the NF-κB-GFP expression entry in experiment [1] is listed as “lowered NF-κB-GFP expression”. In addition, in the experiment on patients with BENTA, the BENTA symptoms result was “amelioration of their BENTA symptoms” and the “Jun/Fos … in patients” value is reported as “reduced Jun/Fos, and/or NF-κB and/or a mTor pathway (e.g., mTORc1 and/or mTORc2) activation”. In addition, in experiment [2], the “mTor pathway (mTORc1 and/or mTORc2) activation” value is “suppress mTor pathway (e.g., mTORc1 and/or mTORc2) activation”. Also, in experiment [3], the NF-κB-GFP expression entry is “lowered NF-κB-GFP expression”. Moreover, the “cleavage of HOIL1” value on full-length human MALT1 is reported as “cleavage of HOIL1 is reduced”.
Take `CO[C@@H](C)c1c(Nc2ccc([C@H](N(C)C(=O)C3CCS(=O)(=O)CC3)C(F)(F)F)cc2C)cnc2nc(Cl)nn12` [Compound 1.33, N-[(1S)-1-[4-({2-chloro-7-[(1S)-1-methoxyethyl]-[1,2,4]triazolo [1,5-a]pyrimidin-6-yl}amino)-3-methylphenyl]-2,2,2-trifluoroethyl]-N-methyl 1,1-dioxo-1λ^6-thiane-4-carboxamide]: the NF-κB-GFP expression result in experiment [1] was “lowered NF-κB-GFP expression”. Also, in the experiment on patients with BENTA, the BENTA symptoms result is reported as “amelioration of their BENTA symptoms” and the “Jun/Fos … in patients” value is on record as “reduced Jun/Fos, and/or NF-κB and/or a mTor pathway (e.g., mTORc1 and/or mTORc2) activation”. Besides, in experiment [2], the “mTor pathway (mTORc1 and/or mTORc2) activation” value is listed as “suppress mTor pathway (e.g., mTORc1 and/or mTORc2) activation”. In addition, the NF-κB-GFP expression entry in experiment [3] is on record as “lowered NF-κB-GFP expression”. Besides, on full-length human MALT1, the “cleavage of HOIL1” value is on record as “cleavage of HOIL1 is reduced”.
For `CN(C(=O)[C@H]1CC[C@H](C(=O)O)CC1)[C@@H](c1ccc(Nc2cnn(-c3ccccc3)c2C(F)(F)F)cc1)C(F)(F)F` [Compound 2.1], the NF-κB-GFP expression entry in experiment [1] is reported as “lowered NF-κB-GFP expression”. Also, in the experiment on patients with BENTA, the BENTA symptoms entry is on record as “amelioration of their BENTA symptoms” and the “Jun/Fos … in patients” value is recorded as “reduced Jun/Fos, and/or NF-κB and/or a mTor pathway (e.g., mTORc1 and/or mTORc2) activation”. Moreover, in experiment [2], the “mTor pathway (mTORc1 and/or mTORc2) activation” value is on record as “suppress mTor pathway (e.g., mTORc1 and/or mTORc2) activation”. In addition, in experiment [3], the NF-κB-GFP expression entry is “lowered NF-κB-GFP expression”. In addition, the “cleavage of HOIL1” value on full-length human MALT1 was “cleavage of HOIL1 is reduced”.
For `CO[C@@H](C)c1c(Nc2ccc([C@H](N(C)C(=O)C3CCS(=O)(=O)CC3)C(F)(F)F)c(C)c2)cnc2nc(Cl)nn12` [Compound 1.30, N-[(1S)-1-[4-({2-chloro-7-[(1S)-1-methoxyethyl]-[1,2,4]triazolo[1,5-a]pyrimidin-6-yl}amino)-2-methylphenyl]-2,2,2-trifluoroethyl]-N-methyl-1,1-dioxo-1λ^6-thiane-4-carboxamide], in experiment [1], the NF-κB-GFP expression result is “lowered NF-κB-GFP expression”. Besides, in the experiment on patients with BENTA, the BENTA symptoms result is “amelioration of their BENTA symptoms” and the “Jun/Fos … in patients” value is listed as “reduced Jun/Fos, and/or NF-κB and/or a mTor pathway (e.g., mTORc1 and/or mTORc2) activation”. Also, the “mTor pathway (mTORc1 and/or mTORc2) activation” value in experiment [2] was “suppress mTor pathway (e.g., mTORc1 and/or mTORc2) activation”. Besides, the NF-κB-GFP expression result in experiment [3] was “lowered NF-κB-GFP expression”. For the same molecule, the “cleavage of HOIL1” value at full-length human MALT1 is reported as “cleavage of HOIL1 is reduced”.
